Data: patent US20210169892A1, “MODULATORS OF THE INTEGRATED STRESS PATHWAY” (Calico Life Sciences LLC, priority 2017, published 2021)

Test system: HEK293T cells carrying the ATF4 luciferase reporter
Assay: ATF4-Luc assay (in vitro model of vanishing white matter disease)
Format: cell-based
Conditions: Homo sapiens, HEK-293T; HEK293T cells with ATF4 luciferase reporter, 1 μg/mL tunicamycin, 7 hours, One Glo luminescence
How it was run: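 Stable HEK293T line with human ATF4 5′-UTR–firefly luciferase reporter treated with 1 μg/mL tunicamycin plus 200 nM compound for 7 h. Luminescence read; EC50 derived.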

Structure (SMILES): O=C(COc1ccc(Cl)c(F)c1)NC12CC(NC(=O)[C@H]3COc4cc(Cl)ccc4O3)(C1)C2 [Compound 119, (2R)-6-chloro-N-{3-[2-(4-chloro-3-fluorophenoxy)acetamido]bicyclo[1.1.1]pentan-1-yl}-2,3-dihydro-1,4-benzodioxine-2-carboxamide]
- EC50: < 10 nM

Structure (SMILES): CSCCC(=O)N1CC(C(=O)NC23CC(NC(=O)COc4ccc(Cl)c(F)c4)(C2)C3)Oc2ccc(Cl)cc21 (centres unmarked) [Compound 162, 6-chloro-N-{3-[2-(4-chloro-3-fluorophenoxy)acetamido]bicyclo[1.1.1]pentan-1-yl}-4-[3-(methylsulfanyl)propanoyl]-3,4-dihydro-2H-1,4-benzoxazine-2-carboxamide]
- EC50: 50 to 250 nM

Structure (SMILES): O=C(COc1ccc(Cl)c(F)c1)NC12CC(NC(=O)C3CN(C(=O)c4ccc(S(=O)(=O)F)cc4)c4cc(Cl)ccc4O3)(C1)C2 (centres unmarked) [Compound 147, 4-[6-chloro-2-({3-[2-(4-chloro-3-fluorophenoxy)acetamido]bicyclo[1.1.1]pentan-1-yl}carbamoyl)-2,3-dihydro-4H-1,4-benzoxazine-4-carbonyl]benzene-1-sulfonyl fluoride]
- EC50: 500 to 2000 nM

Structure (SMILES): Cn1cnc(S(=O)(=O)N2CC(C(=O)NC34CC(NC(=O)COc5ccc(Cl)c(F)c5)(C3)C4)Oc3ccc(Cl)cc32)c1 (centres unmarked) [Compound 165, 6-chloro-N-{3-[2-(4-chloro-3-fluorophenoxy)acetamido]bicyclo[1.1.1]pentan-1-yl}-4-(1-methyl-1H-imidazole-4-sulfonyl)-3,4-dihydro-2H-1,4-benzoxazine-2-carboxamide]
- EC50: 10 to 50 nM

Structure (SMILES): O=C(COc1ccc(Cl)c(F)c1)NC12CC(NC(=O)[C@H]3CCc4cc(F)ccc4O3)(C1)C2 [Compound 120, (2R)—N-{3-[2-(4-chloro-3-fluorophenoxy)acetamido]bicyclo[1.1.1]pentan-1-yl}-6-fluoro-3,4-dihydro-2H-1-benzopyran-2-carboxamide]
- EC50: < 10 nM

Structure (SMILES): O=C(COc1ccc(Cl)c(F)c1)NC12CC(NC(=O)[C@@H]3COc4ccccc4O3)(C1)C2 [Compound 125, (2S)—N-{3-[2-(4-chloro-3-fluorophenoxy)acetamido]bicyclo[1.1.1]pentan-1-yl}-2,3-dihydro-1,4-benzodioxine-2-carboxamide]
- EC50: 50 to 250 nM

Structure (SMILES): COCC(=O)N1CC(C(=O)NC23CC(NC(=O)COc4ccc(Cl)c(F)c4)(C2)C3)Oc2ccc(Cl)cc21 (centres unmarked) [Compound 158, 6-chloro-N-{3-[2-(4-chloro-3-fluorophenoxy)acetamido]bicyclo[1.1.1]pentan-1-yl}-4-(methoxyacetyl)-3,4-dihydro-2H-1,4-benzoxazine-2-carboxamide]
- EC50: 10 to 50 nM

Structure (SMILES): O=C(COc1ccc(Cl)c(F)c1)NC12CCC(NC(=O)C3Cc4ccccc4O3)(CC1)C(O)C2 (centres unmarked) [Compound 129, N-{4-[2-(4-chloro-3-fluorophenoxy)acetamido]-2-hydroxybicyclo[2.2.2]octan-1-yl}-2,3-dihydro-1-benzofuran-2-carboxamide]
- EC50: 250 to 500 nM

Structure (SMILES): O=C(COc1ccc(Cl)c(Cl)c1)NC12CCC(NC(=O)[C@H]3COc4cc(Cl)ccc4O3)(CC1)C[C@@H]2O [Compound 116, (2R)-6-chloro-N-{(3S)-4-[2-(3,4-dichlorophenoxy)acetamido]-3-hydroxybicyclo[2.2.2]octan-1-yl}-2,3-dihydro-1,4-benzodioxine-2-carboxamide]
- EC50: < 10 nM

Structure (SMILES): CS(=O)(=O)CCN1CC(C(=O)NC23CC(NC(=O)COc4ccc(Cl)c(F)c4)(C2)C3)Oc2ccc(Cl)cc21 (centres unmarked) [Compound 180, 6-chloro-N-{3-[2-(4-chloro-3-fluorophenoxy)acetamido]bicyclo[1.1.1]pentan-1-yl}-4-[2-(methanesulfonyl)ethyl]-3,4-dihydro-2H-1,4-benzoxazine-2-carboxamide]
- EC50: 10 to 50 nM

Structure (SMILES): Cc1cc(S(=O)(=O)N2CC(C(=O)NC34CC(NC(=O)COc5ccc(Cl)c(F)c5)(C3)C4)Oc3ccc(Cl)cc32)c(C(F)(F)F)o1 (centres unmarked) [Compound 163, 6-chloro-N-{3-[2-(4-chloro-3-fluorophenoxy)acetamido]bicyclo[1.1.1]pentan-1-yl}-4-[5-methyl-2-(trifluoromethyl)furan-3-sulfonyl]-3,4-dihydro-2H-1,4-benzoxazine-2-carboxamide]
- EC50: > 2000 nM
